According to patent US11478477B2, “Method for treating cancer by combination of FAK/ALK/ROS1 inhibitor and EGFR inhibitor” (ASCENTAGE PHARMA (SUZHOU) CO., LTD., priority 2018, dated 2022):
Where two headings read alike, the source gives them in different places. Marks after values point to notes of the source that are not given here.

Columns and labels:
[1] = tested on: human NCI-H1975 xenograft tumor model; experiment: Example 8: Compound 5 or Ensartinib with Avitinib in xenograft tumor model; format: in vivo, mouse; settings: Compound 5 50 mg/kg; Ensartinib 20 mg/kg; Avitinib 10 mg/kg; orally, once per day, 21 days
From the text: (§1) The dosage regimen was as follows:

[2] = tested on: human NCI-H1975 xenograft tumor model; experiment: Example 9: Compound 5 with AZD9291 or Avitinib in xenograft tumor model; format: in vivo, mouse; settings: Compound 5 50 mg/kg, AZD9291 2 mg/kg, Avitinib 10 mg/kg, orally, once per day
From the text: as §1

NCI-H1975 tumor cells = experiment: WST (CCK-8) anti-proliferation experiment, single drugs and combinations; format: cell-based; settings: Homo sapiens, NCI-H1975, 72 hours
Protocol: Cell plating: Anti-proliferative effects were detected by a CCK-8 (Cell Counting Kit-8) assay based on water soluble tetrazolium salt (WST). The cells were seeded in 96-well plates, and only 95 μL of complete medium was added to each negative control group. 95 μL of complete medium cell suspension was added to each well to be tested, and the cell density was […]. Dosing (protection from light): In 96-well culture plates, according to the sensitivity of different cells to different drugs, the highest concentration was selected as 10 μM, and 9 concentrations were obtained by serial dilution in a ratio of 1:3.5 μL of compound was added to each well and 2-3 replicate wells were made for per concentration. After the compound was added, 96-well plates were incubated in a 5% CO2 incubator at 37° C. After 72 hours of action by using 9 different concentrations of the drug with 3 fixed doses of Compound 5, the combination effect of Compound 5 and the drug was tested. Reading: At the end of the culture, the old solution was removed from the well to be tested, and 100 μl/well CCK-8 test solution (containing 10% CCK-8, 5% FBS in the corresponding medium) was added. The plates were continuously incubated at 37° C. for 2-4 hours in a CO2 incubator. The OD values were measured using a microplate reader (SpectraMax Plus 384, Molecular Devices, LLC., US) under A450 nm. […] (O.D. of test well−O.D. of blank control well)/(O.D. of cell control well−O.D. of blank control well)×100%. IC50 values were calculated using Graphpad Prism 6.0 software for nonlinear regression data analysis method.

[3] = tested on: human NCI-H1975 lung cancer mouse xenograft tumor model; experiment: Example 4: Compound 5 with AZD9291 or afatinib in xenograft tumor model; format: in vivo; settings: for RTV on Day 15 after administration (mean ± standard error) / T/C on Day 15 after administration (%): Compound 5 100 mg/kg, AZD9291 5 then 2 mg/kg, afatinib 10 then 5 mg/kg, orally, once per day
From the text: Subsequently, a H1975 cell-derived mouse xenograft tumor model was established to evaluate the anti-tumor effects of Compound 5 in combination with EGFR inhibitor AZD9291 (osimertinib) or afatinib.

[4] = single EGFR inhibitor, read-out: Compound B IC50

| SMILES | RTV on Day 21 after administration (mean ± standard error) [1] | T/C on Day 21 after administration (%) [1] [%] | RTV on Day 11 after administration (mean ± standard error) [2] | T/C on Day 11 after administration (%) [2] | RTV on Day 15 after administration (mean ± standard error) [2] | T/C on Day 15 after administration (%) [2] [%] | IC50 (NCI-H1975 tumor cells; [4]) [nM] | RTV on Day 15 after administration (mean ± standard error) [3] | T/C on Day 15 after administration (%) [3] [%] | tumor after discontinuation of administration ([3]; after discontinuation of administration) | T/C on Day 15 after administration (%) ([3]; listed as Afatinib) | IC50 (NCI-H1975 tumor cells; single drug, read-out: Compound A IC50) [nM] |
| --- | --- | --- | --- | --- | --- | --- | --- | --- | --- | --- | --- | --- |
| C[C@@H]1CN(C(=O)c2ccc(NC(=O)c3cc(O[C@H](C)c4c(Cl)ccc(F)c4Cl)c(N)nn3)cc2)C[C@H](C)N1 [Ensartinib] | 9.5 ± 1.1 | 61.3 |  |  |  |  |  |  |  |  |  |  |
| C=CC(=O)Nc1cc(Nc2nccc(-c3cn(C)c4ccccc34)n2)c(OC)cc1N(C)CCN(C)C [AZD9291, osimertinib] |  |  | 1.6 ± 0.3 | 1.6** % | 1.8 ± 0.2 | 16.8 | 410 | 1.4 ± 0.2 | 6 | tumor rebound was gradually observed |  |  |
| CN(C)C/C=C/C(=O)Nc1cc2c(Nc3ccc(F)c(Cl)c3)ncnc2cc1O[C@H]1CCOC1 [afatinib] |  |  |  |  |  |  | 337 | 15.5 ± 1.5 | 74 |  | 74.0 |  |
| C=CC(=O)Nc1cccc(Oc2nc(Nc3ccc(N4CCN(C)CC4)c(F)c3)nc3[nH]ccc23)c1 [Avitinib] | 13.29 ± 2.65 | 83.1 | 5.9 ± 0.4 | 82.0% | 7.8 ± 0.7 | 72.4 |  |  |  |  |  |  |
| Cc1cc(Nc2ncc(Cl)c(Nc3ccccc3S(=O)(=O)C(C)C)n2)c(OC(C)C)cc1C1=CCN(C2CCOCC2)CC1 [Compound 5, 5-chloro-N^2-(2-isopropoxy-5-methyl-4-(1-(tetrahydro-2H-pyran-4-yl)-1,2,3,6-tetrahydropyridin-4-yl)phenyl)-N^4-(2-(isopropylsulfonyl)phenyl)pyrimidine-2,4-diamine] | 12.8 ± 1.5 | 80 | 8.2 ± 0.5 | 113.8% | 10.3 ± 1.1 | 95.6 |  | 13.8 ± 1.8 | 66.0 |  |  | 3550 ± 1110 |
